Experimental data published in article PMC10669656, “ADMET and Solubility Analysis of New 5-Nitroisatine-Based Inhibitors of CDK2 Enzymes” (Biomedicines, 2023).
Values after ≈ are worked out from the molar mass of the structure shown. Values joined by “and” are separate entries in the source; they are usually repeats but may differ in a detail not shown here. Equal values may be shown once.

Assays:
Assay type in all cases: physicochemical
[1] = Solubility in DMSO-water binary mixtures; details: for solubility at 24 h: 25 °C, thermodynamic from solid
Procedure: (§1) The calibration curves for each derivative were obtained using successful dilutions of initial stock solutions followed by spectrophotometric measurements of the obtained solutions with decreasing concentration. The concentration ranges for the derivatives 1, 2, and 3 were 0.0081–0.0405 mg/mL, 0.0077–0.0385 mg/mL, and 0.0068–0.017 mg/mL, respectively. Methanol was used both as a solvent, as well as a reference for spectrophotometric measurements. […] The A360 spectrophotometer from AOE Instruments was used for the preparation of the calibration curves. […] Three calibration curves were prepared for each derivative and then averaged.
(§2) A multi-step procedure was employed in order to find the solubility of the studied derivatives in the selected solvents. First of all, the excess amount of the considered compound was added to test tubes containing either neat solvents or their mixtures with water in different proportions, thus forming binary solvents. Saturated solutions were obtained in this way, placed in a Shaker Incubator ES-20/60 from Biosan, and incubated for 24 h at 298.1 K. The temperature adjustment was possible with a 0.1-degree accuracy, and the variance within a 24 h cycle was 0.5 degrees. The samples were simultaneously mixed at 60 rev/min. After incubation, the samples were filtered with the help of plastic syringes equipped with PTFE filters with 0.22 µm pore size. The obtained filtrates were diluted with methanol in another set of test tubes. In order to determine the mole fractions of a solute in the solution, 1 mL of the filtered samples was weighed in 10 mL volumetric flasks using a RADWAG AS 110 R2.PLUS analytical balance. The samples diluted with methanol were measured spectrophotometrically using the same instrument as was used in the case of calibration curves. The spectra were recorded in the wavelength range of 190–500 nm, and the resolution was 1 nm. Methanol was used if further dilution of the sample was required, and it was also used as a reference for calibrating the spectrophotometer. The absorbance values at 315 nm, 321 nm, and 321 nm were taken into account for derivatives 1, 2, and 3, respectively. Based on the calibration curves, the concentration of the solute in the samples was determined together with its mole fraction. Three separate measurements were conducted, and the final values are the results of averaging them.

[2] = Solubility in NMP-water binary mixtures; details: for solubility at 24 h: thermodynamic from solid
Procedure: as §1, §2

[3] = Solubility in neat solvents, shake-flask with spectrophotometric determination; details: for solubility at 24 h: 25 °C, organic solvent or mixture, thermodynamic from solid
Procedure: as §1, §2

[4] = neat γ-nonanoic lactone, 298.1 K

Work on `Nc1cccc(C(=O)NN=C2C(=O)Nc3ccc([N+](=O)[O-])cc32)c1` [derivative 2, 3-Amino-N′-[5-nitro-2-oxo-1,2-dihydro-3H-indol-3-ylidene]benzohydrazide] yielded a solubility at 24 h ([1]; DMSO-water binary mixture, aqueous with cosolvent or surfactant or cyclodextrin, x*DMSO 0.1, 298.1 K) of 3220 µg/mL (≈ 9.9 mM), a solubility at 24 h ([1]; DMSO-water binary mixture, aqueous with cosolvent or surfactant or cyclodextrin, x*DMSO 0.2, 298.1 K) of 6950 µg/mL (≈ 21.4 mM) and a solubility at 24 h ([1]; DMSO-water binary mixture, aqueous with cosolvent or surfactant or cyclodextrin, x*DMSO 0.3, 298.1 K) of 10800 µg/mL (≈ 33.2 mM). The solubility at 24 h ([1]; DMSO-water binary mixture, aqueous with cosolvent or surfactant or cyclodextrin, x*DMSO 0.4, 298.1 K) was 14300 µg/mL (≈ 44 mM), the solubility at 24 h ([1]; DMSO-water binary mixture, aqueous with cosolvent or surfactant or cyclodextrin, x*DMSO 0.5, 298.1 K) was 18400 µg/mL (≈ 56.6 mM) and the solubility at 24 h ([1]; DMSO-water binary mixture, aqueous with cosolvent or surfactant or cyclodextrin, x*DMSO 0.6, 298.1 K) was 21000 µg/mL (≈ 64.6 mM). For the same molecule, the solubility at 24 h ([1]; DMSO-water binary mixture, aqueous with cosolvent or surfactant or cyclodextrin, x*DMSO 0.7, 298.1 K) was 24100 µg/mL (≈ 74.1 mM), the solubility at 24 h ([1]; DMSO-water binary mixture, aqueous with cosolvent or surfactant or cyclodextrin, x*DMSO 0.8, 298.1 K) was 25400 µg/mL (≈ 78.1 mM) and the solubility at 24 h ([1]; DMSO-water binary mixture, aqueous with cosolvent or surfactant or cyclodextrin, x*DMSO 0.9, 298.1 K) was 24100 µg/mL (≈ 74.1 mM). For the same molecule, the solubility at 24 h ([1]; DMSO-water series, organic solvent or mixture, x*DMSO 1.0, 298.1 K) was 21400 µg/mL (≈ 65.8 mM), the solubility x ([1]; x*DMSO 0.1, 298.1 K) was 2.11 (0.02) × 10^−4 mole fraction and the solubility x ([1]; x*DMSO 0.2, 298.1 K) was 5.76 (0.06) × 10^−4 mole fraction. For the same molecule, the solubility x ([1]; x*DMSO 0.3, 298.1 K) was 1.08 (0.01) × 10^−3 mole fraction, the solubility x ([1]; x*DMSO 0.4, 298.1 K) was 1.69 (0.02) × 10^−3 mole fraction and the solubility x ([1]; x*DMSO 0.5, 298.1 K) was 2.46 (0.02) × 10^−3 mole fraction. For the same molecule, the solubility x ([1]; x*DMSO 0.6, 298.1 K) was 3.18 (0.03) × 10^−3 mole fraction, the solubility x ([1]; x*DMSO 0.7, 298.1 K) was 4.01 (0.05) × 10^−3 mole fraction and the solubility x ([1]; x*DMSO 0.8, 298.1 K) was 4.68 (0.03) × 10^−3 mole fraction. For the same molecule, the solubility x ([1]; x*DMSO 0.9, 298.1 K) was 4.86 (0.08) × 10^−3 mole fraction, the solubility x ([1]; x*DMSO 1.0, 298.1 K) was 4.63 (0.14) × 10^−3 mole fraction and the solubility at 24 h ([2]; NMP-water binary mixture, x*NMP 0.1, 25 °C, aqueous with cosolvent or surfactant or cyclodextrin, x*NMP 0.1, 298.1 K) was 5750 µg/mL (≈ 17.7 mM). For the same molecule, the solubility at 24 h ([2]; NMP-water binary mixture, x*NMP 0.2, 25 °C, aqueous with cosolvent or surfactant or cyclodextrin, x*NMP 0.2, 298.1 K) was 12100 µg/mL (≈ 37.2 mM), the solubility at 24 h ([2]; NMP-water binary mixture, x*NMP 0.3, 25 °C, aqueous with cosolvent or surfactant or cyclodextrin, x*NMP 0.3, 298.1 K) was 18200 µg/mL (≈ 56 mM) and the solubility at 24 h ([2]; NMP-water binary mixture, x*NMP 0.4, 25 °C, aqueous with cosolvent or surfactant or cyclodextrin, x*NMP 0.4, 298.1 K) was 23300 µg/mL (≈ 71.6 mM). For the same molecule, the solubility at 24 h ([2]; NMP-water binary mixture, x*NMP 0.7, 25 °C, aqueous with cosolvent or surfactant or cyclodextrin, x*NMP 0.7, 298.1 K) was 34500 µg/mL (≈ 106 mM), the solubility at 24 h ([2]; NMP-water binary mixture, x*NMP 0.8, 25 °C, aqueous with cosolvent or surfactant or cyclodextrin, x*NMP 0.8, 298.1 K) was 35900 µg/mL (≈ 110 mM) and the solubility at 24 h ([2]; NMP-water binary mixture, x*NMP 0.9, 25 °C, aqueous with cosolvent or surfactant or cyclodextrin, x*NMP 0.9, 298.1 K) was 34900 µg/mL (≈ 107 mM). It also gave a solubility at 24 h ([2]; NMP-water binary solvent, 25 °C, aqueous with cosolvent or surfactant or cyclodextrin, x*NMP 0.5, 298.1 K) of 29500 µg/mL (≈ 90.7 mM), a solubility at 24 h ([2]; NMP-water binary solvent, 25 °C, aqueous with cosolvent or surfactant or cyclodextrin, x*NMP 0.6, 298.1 K) of 33000 µg/mL (≈ 101 mM) and a solubility at 24 h ([2]; NMP-water series, x*NMP 1.0, 25 °C, organic solvent or mixture, x*NMP 1.0, 298.1 K) of 32700 µg/mL (≈ 101 mM). The solubility x ([2]; x*NMP 0.1, 298.1 K) was 4.43 (0.05) × 10^−4 mole fraction, the solubility x ([2]; x*NMP 0.2, 298.1 K) was 1.23 (0.01) × 10^−3 mole fraction and the solubility x ([2]; x*NMP 0.3, 298.1 K) was 2.32 (0.03) × 10^−3 mole fraction. For the same molecule, the solubility x ([2]; x*NMP 0.4, 298.1 K) was 3.53 (0.04) × 10^−3 mole fraction, the solubility x ([2]; x*NMP 0.5, 298.1 K) was 5.24 (0.06) × 10^−3 mole fraction and the solubility x ([2]; x*NMP 0.6, 298.1 K) was 6.71 (0.08) × 10^−3 mole fraction. The solubility x ([2]; x*NMP 0.7, 298.1 K) was 7.95 (0.08) × 10^−3 mole fraction, the solubility x ([2]; x*NMP 0.8, 298.1 K) was 8.96 (0.09) × 10^−3 mole fraction and the solubility x ([2]; x*NMP 0.9, 298.1 K) was 9.53 (0.11) × 10^−3 mole fraction. For the same molecule, the solubility x ([2]; x*NMP 1.0, 298.1 K) was 9.80 (0.13) × 10^−3 mole fraction, the solubility at 24 h ([3]; neat DMF, 298.1 K) was 15300 µg/mL (≈ 47 mM) and the solubility at 24 h ([3]; neat DMP, 298.1 K) was 290 µg/mL (≈ 0.892 mM). For the same molecule, the solubility at 24 h ([3]; neat DMSO, 298.1 K) was 21400 µg/mL (≈ 65.8 mM), the solubility at 24 h ([3]; neat NMP, 298.1 K) was 32700 µg/mL (≈ 101 mM) and the solubility at 24 h ([3]; neat acetone, 298.1 K) was 900 µg/mL (≈ 2.77 mM). For the same molecule, the solubility at 24 h ([3]; neat acetonitrile, 298.1 K) was 610 µg/mL (≈ 1.88 mM), the solubility at 24 h ([3]; neat cyrene, 298.1 K) was 750 µg/mL (≈ 2.31 mM) and the solubility at 24 h ([3]; neat diglyme, 298.1 K) was 1190 µg/mL (≈ 3.66 mM). The solubility at 24 h ([3]; neat dioxane, 298.1 K) was 960 µg/mL (≈ 2.95 mM), the solubility at 24 h ([3]; neat ethyl lactate, 298.1 K) was 560 µg/mL (≈ 1.72 mM) and the solubility at 24 h ([3]; neat methanol, 298.1 K) was 310 µg/mL (≈ 0.953 mM). It also gave a solubility at 24 h ([3]; neat tetraglyme, 298.1 K) of 1790 µg/mL (≈ 5.5 mM), a solubility at 24 h ([3]; neat triglyme, 298.1 K) of 420 µg/mL (≈ 1.29 mM) and a solubility at 24 h ([3]; neat γ-heptalactone, 298.1 K) of 1090 µg/mL (≈ 3.35 mM). For the same molecule, the solubility at 24 h [3, 4] was 710 µg/mL (≈ 2.18 mM), the solubility at 24 h ([3]; neat 1-butanol) was 70 µg/mL (≈ 0.215 mM) and the solubility x ([3]; neat 1-butanol, 298.1 K) was 0.21 (0.01) × 10^−4 mole fraction. The solubility at 24 h ([3]; neat 1-propanol) was 100 µg/mL (≈ 0.307 mM), the solubility x ([3]; neat 1-propanol, 298.1 K) was 0.23 (0.01) × 10^−4 mole fraction and the solubility at 24 h ([3]; neat 4FM) was 3470 µg/mL (≈ 10.7 mM). For the same molecule, the solubility x ([3]; neat 4FM, 298.1 K) was 1.06 (0.04) × 10^−3 mole fraction, the solubility x ([3]; neat DMF, 298.1 K) was 3.66 × 10^−3 mole fraction and 3.66 (0.06) × 10^−3 mole fraction and the solubility x ([3]; neat DMP, 298.1 K) was 1.05 (0.03) × 10^−4 mole fraction. The solubility x ([3]; neat DMSO, 298.1 K) was 4.63 × 10^−3 mole fraction and 4.63 (0.14) × 10^−3 mole fraction, the solubility x ([3]; neat NMP, 298.1 K) was 9.80 × 10^−3 mole fraction and 9.80 (0.13) × 10^−3 mole fraction and the solubility x ([3]; neat acetonitrile, 298.1 K) was 0.96 (0.03) × 10^−4 mole fraction. For the same molecule, the solubility x ([3]; neat cyrene, 298.1 K) was 2.36 (0.04) × 10^−4 mole fraction, the solubility x ([3]; neat diglyme, 298.1 K) was 5.22 (0.10) × 10^−4 mole fraction and the solubility x ([3]; neat dioxane, 298.1 K) was 2.49 (0.05) × 10^−4 mole fraction. The solubility at 24 h ([3]; neat ethanol) was 150 µg/mL (≈ 0.461 mM), the solubility x ([3]; neat ethanol, 298.1 K) was 0.26 (0.01) × 10^−4 mole fraction and the solubility x ([3]; neat ethyl lactate, 298.1 K) was 1.95 (0.04) × 10^−4 mole fraction. The solubility x ([3]; neat methanol, 298.1 K) was 0.39 (0.01) × 10^−4 mole fraction, the solubility x ([3]; neat tetraglyme, 298.1 K) was 1.20 (0.02) × 10^−3 mole fraction and the solubility x ([3]; neat triglyme, 298.1 K) was 2.34 (0.06) × 10^−4 mole fraction. The solubility x ([3]; neat γ-heptalactone, 298.1 K) was 4.25 (0.06) × 10^−4 mole fraction, the solubility x [3, 4] was 3.46 (0.07) × 10^−4 mole fraction and the solubility at 24 h ([3]; neat ε-caprolactone) was 1010 µg/mL (≈ 3.1 mM). For the same molecule, the solubility x ([3]; neat ε-caprolactone, 298.1 K) was 3.25 (0.09) × 10^−4 mole fraction.
